Results reported in ChEMBL document CHEMBL4689842, “EUbOPEN Chemogenomics Library wave 1” (2021).

Legend:
Assay type in all cases: toxicity, cell-based
HEK-293T = test: Incucyte cell viability with HEK293T; conditions: human, 10 µM, compound concentration 10 uM
Fibroblast = test: Incucyte cell viability with human fibroblast; conditions: 10 µM, compound concentration 10 uM
U2OS = test: Incucyte cell viability with U2OS; conditions: human, 10 µM, compound concentration 10 uM
[1] = 0 h, replicate number 1, timepoint 0 hours
[2] = 0 h, replicate number 2, timepoint 0 hours
[3] = 6 h, replicate number 1, timepoint 6 hours
[4] = 12 h, replicate number 1, timepoint 12 hours
[5] = 18 h, replicate number 1, timepoint 18 hours
[6] = 24 h, replicate number 1, timepoint 24 hours
[7] = 6 h, replicate number 2, timepoint 6 hours
[8] = 12 h, replicate number 2, timepoint 12 hours
[9] = 18 h, replicate number 2, timepoint 18 hours
[10] = 24 h, replicate number 2, timepoint 24 hours
Further: filed as whole numbers so only -1 and 0 and 1 occur.

SMILES | Growth Rate (HEK-293T; [1]) | Growth Rate (HEK-293T; [3]) | Growth Rate (HEK-293T; [4]) | Growth Rate (HEK-293T; [5]) | Growth Rate (HEK-293T; [6]) | Growth Rate (Fibroblast; [1]) | Growth Rate (Fibroblast; [3]) | Growth Rate (Fibroblast; [7]) | Growth Rate (Fibroblast; [4]) | Growth Rate (Fibroblast; [8]) | Growth Rate (Fibroblast; [5]) | Growth Rate (Fibroblast; [6]) | Growth Rate (U2OS; [1]) | Growth Rate (U2OS; [7]) | Growth Rate (U2OS; [4]) | Growth Rate (U2OS; [5]) | Growth Rate (U2OS; [9]) | Growth Rate (U2OS; [6]) | Growth Rate (HEK-293T; [7]) | Growth Rate (HEK-293T; [8]) | further results
COc1ccccc1C(=O)Nc1cc2c(cc1N1CCCC1)n(C)c(=O)n2C | 0 | 0 | 1 | 1 | 1 | 0 | 1 | 0 | 1 | 0 | 1 | 1 | 0 | – | – | – | – | – | – | – | Growth Rate (HEK-293T; [2]): 1
CC(C)Oc1ccc(-c2nn([C@@H](C)c3oc4ccc(F)cc4c(=O)c3-c3cccc(F)c3)c3ncnc(N)c23)cc1F [UMBRALISIB] | 1 | 0 | 0 | 0 | 0 | – | 1 | 0 | 1 | 0 | 1 | 1 | 0 | 1 | 0 | 0 | 1 | 0 | – | – | Growth Rate (HEK-293T; [2]): 0; Growth Rate (U2OS; [3]): 0; Growth Rate (U2OS; [8]): 1; Growth Rate (U2OS; [10]): 1
O=C(Nc1cccnc1)c1cc(-c2ccnc(F)c2)ccc1OCc1ccccc1 | 0 | – | – | – | 1 | 0 | 0 | – | 0 | – | 0 | 0 | – | – | 0 | 0 | – | 0 | 1 | 1 | Growth Rate (HEK-293T; [10]): 0; Growth Rate (Fibroblast; [9]): 1; Growth Rate (Fibroblast; [10]): 1; Growth Rate (U2OS; [2]): 0; Growth Rate (U2OS; [3]): 1; Growth Rate (U2OS; [10]): 1
CS(=O)(=O)c1cc(C2(NC(=O)c3cncc4c3cnn4-c3ccc(F)cc3)CC2)ccn1 [BI 639667] | 0 | 1 | 1 | 1 | 1 | 0 | 1 | 0 | 1 | 0 | 0 | 0 | 0 | 1 | 1 | 0 | 1 | 1 | 0 | 0 | Growth Rate (U2OS; [2]): 1; Growth Rate (U2OS; [8]): 0
CCCCc1nc(Cl)c(CO)n1Cc1ccc(-c2ccccc2-c2nn[nH]n2)cc1 [LOSARTAN] | 0 | 1 | 1 | 1 | 1 | 0 | 1 | 0 | 1 | 0 | 1 | 1 | 0 | 1 | 1 | 0 | 1 | 0 | 0 | 0 | Growth Rate (HEK-293T; [9]): 0; Growth Rate (HEK-293T; [10]): 0; Growth Rate (Fibroblast; [9]): 0; Growth Rate (Fibroblast; [10]): 0; Growth Rate (U2OS; [3]): 0; Growth Rate (U2OS; [10]): 1
CC(=O)N1CCC(c2ccc(C(=O)NC3=NCCN3)cc2C(F)(F)F)CC1 [BI 0054] | 1 | 1 | 0 | 1 | 1 | 0 | 1 | 0 | 1 | – | 1 | 1 | 0 | – | 1 | 1 | – | 1 | 0 | – | Growth Rate (HEK-293T; [2]): 0; Growth Rate (HEK-293T; [9]): 0; Growth Rate (HEK-293T; [10]): 0
C[C@@H](NCCc1ccc(O)cc1)[C@@H](O)c1ccc(O)cc1.Cl (relative stereo) | 0 | 0 | 0 | 0 | 0 | 0 | – | – | – | – | – | – | 0 | 1 | 1 | 1 | – | 1 | 1 | 1 | Growth Rate (Fibroblast; [9]): 1; Growth Rate (Fibroblast; [10]): 1
Cc1cc(SCc2sc(-c3ccc(C(F)(F)F)c(F)c3)nc2C)ccc1OCC(=O)O | 0 | 1 | 1 | 0 | 0 | 0 | 1 | – | 1 | 0 | 1 | 1 | 0 | 1 | 1 | 1 | – | 1 | – | 0 | Growth Rate (Fibroblast; [10]): 0
COc1cccc(OC)c1-c1cc(C(=O)NC2(C(=O)O)C3CC4CC(C3)CC2C4)nn1-c1ccnc2cc(Cl)ccc12 (centres undefined) [REMINERTANT] | 0 | 0 | 0 | 0 | 0 | 0 | – | 1 | 1 | 0 | 1 | 1 | 1 | 1 | 1 | 0 | 1 | 0 | 1 | 1 | Growth Rate (Fibroblast; [9]): 0; Growth Rate (Fibroblast; [10]): 0; Growth Rate (U2OS; [10]): 1
Cc1cc(C(=O)N2Cc3cnn(C)c3Nc3ccccc32)ccc1CNC(=O)N1CCC[C@H]1C(=S)N1CCCN(C)CC1 | 1 | 0 | 0 | 0 | 0 | 0 | 0 | – | 1 | – | 0 | 0 | – | – | 0 | 0 | 1 | 0 | 1 | 1 | Growth Rate (HEK-293T; [2]): 0; Growth Rate (Fibroblast; [9]): 1; Growth Rate (U2OS; [2]): 0; Growth Rate (U2OS; [3]): 0; Growth Rate (U2OS; [8]): 1
CNc1cc2[nH]c(=O)n(-c3ccc(NC(=O)NS(=O)(=O)c4ccc(Cl)s4)cc3)c(=O)c2cc1F [ELINOGREL] | 1 | 0 | 0 | 0 | 0 | 0 | – | 0 | 1 | 0 | 1 | 1 | 1 | – | 0 | 0 | 1 | 0 | – | 1 | Growth Rate (HEK-293T; [2]): 0; Growth Rate (HEK-293T; [9]): 1; Growth Rate (HEK-293T; [10]): 1; Growth Rate (Fibroblast; [2]): 1; Growth Rate (Fibroblast; [9]): 0; Growth Rate (Fibroblast; [10]): 0; Growth Rate (U2OS; [3]): 0; Growth Rate (U2OS; [8]): 1; Growth Rate (U2OS; [10]): 1
CN1CC(=O)N=C1NC(=O)Nc1cccc(Cl)c1 [FENOBAM ANHYDROUS] | 0 | 1 | 1 | 1 | 1 | 0 | – | – | 1 | – | 1 | 1 | 0 | 1 | 0 | 1 | – | 1 | – | 0 | Growth Rate (HEK-293T; [9]): 0; Growth Rate (HEK-293T; [10]): 0; Growth Rate (U2OS; [8]): 1
CCCCN(CCCC)C(=O)CN1C[C@@H](c2cc(OC)c3c(c2)OCO3)[C@H](C(=O)O)[C@H]1CC(C)(C)CCC.Cl | 0 | 0 | 0 | 0 | 0 | – | 0 | – | 0 | 1 | 0 | 0 | – | 0 | 0 | 0 | 1 | 0 | – | – | Growth Rate (Fibroblast; [2]): 0; Growth Rate (Fibroblast; [9]): 1; Growth Rate (Fibroblast; [10]): 1; Growth Rate (U2OS; [10]): 1
